Like-named read-outs stand apart in the source and are kept apart here.
How the values were obtained:
CLK2 = biological target: T1, CLK2 (Homo sapiens, UniProt P49760); test: CLK2 kinase activity assay (Z-lyte, Ser/Thr 6 peptide); format: biochemical; settings: recombinant CLK2 kinase, ATP 60 μM; read-out: EC50
T1 construct: purchased Thermo Fisher (Life Technologies), Z'-LYTE Kinase Assay Kits
Experimental: All reactions were performed in duplicate.

BT-549 = test: CellTiter-Glo Viability Assay, breast cancer; format: cell-based; settings: Homo sapiens, 96 h; BT-549, breast cancer, four days; read-out: EC50
CAMA1 = test: CellTiter-Glo Viability Assay, breast cancer; format: cell-based; settings: Homo sapiens, CAMA-1, 96 h; CAMA1, breast cancer, four days; read-out: EC50
DU4475 = test: CellTiter-Glo Viability Assay, breast cancer; format: cell-based; settings: Homo sapiens, DU-4475, 96 h; DU4475, breast cancer, four days; read-out: EC50
HCC1599 = test: CellTiter-Glo Viability Assay, breast cancer; format: cell-based; settings: Homo sapiens, 96 h; HCC1599, breast cancer, four days; read-out: EC50
MCF7 = test: CellTiter-Glo Viability Assay, breast cancer; format: cell-based; settings: Homo sapiens, 96 h; MCF7, breast cancer, four days; read-out: EC50
MDA-MB-231-Luc = test: CellTiter-Glo Viability Assay, breast cancer; format: cell-based; settings: Homo sapiens, 96 h; MDA-MB-231-Luc, breast cancer, four days; read-out: EC50
T47D = test: CellTiter-Glo Viability Assay, breast cancer; format: cell-based; settings: Homo sapiens, 96 h, breast cancer, four days, read-out: EC50
ZR-75-1 = test: CellTiter-Glo Viability Assay, breast cancer; format: cell-based; settings: Homo sapiens, 96 h; ZR-75-1, breast cancer, four days; read-out: EC50
all 50 cell lines = test: CellTiter-Glo Viability Assay, average across all cell lines; format: cell-based; settings: Homo sapiens; across all 50 cell lines; read-out: average EC50 for inhibition of cancer cell proliferation
In short: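 Cells were plated at 300-3,000 per well in their own media, then treated with compound in duplicate, with DMSO wells as controls. After four days at 37° C and 5% CO2, CellTiter-Glo was added, and luminescence was read. EC50s were fitted.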

[1] = test system: colorectal cancer (6 cell lines); test: CellTiter-Glo Viability Assay, colorectal cancer; format: cell-based; settings: Homo sapiens, inhibition of cancer cell proliferation
[2] = test system: haematopoietic & lymphoid tumors (13 cell lines); test: CellTiter-Glo Viability Assay, haematopoietic & lymphoid tumors; format: cell-based; settings: Homo sapiens, inhibition of cancer cell proliferation
[3] = test system: liver cancer (3 cell lines); test: CellTiter-Glo Viability Assay, liver cancer; format: cell-based; settings: Homo sapiens, inhibition of cancer cell proliferation
[4] = test system: lung cancer (4 cell lines); test: CellTiter-Glo Viability Assay, lung cancer; format: cell-based; settings: Homo sapiens, inhibition of cancer cell proliferation
[5] = test system: ovarian cancer (4 cell lines); test: CellTiter-Glo Viability Assay, ovarian cancer; format: cell-based; settings: Homo sapiens, inhibition of cancer cell proliferation
[6] = test system: pancreatic cancer (8 cell lines); test: CellTiter-Glo Viability Assay, pancreatic cancer; format: cell-based; settings: Homo sapiens, inhibition of cancer cell proliferation
[7] = test system: prostate cancer (5 cell lines); test: CellTiter-Glo Viability Assay, prostate cancer; format: cell-based; settings: Homo sapiens
CLK3 = CLK3 (Homo sapiens, UniProt P49761); test: CLK3 kinase activity assay (Z-lyte, Ser/Thr 18 peptide)
CLK3, sequence (P49761 whole entry): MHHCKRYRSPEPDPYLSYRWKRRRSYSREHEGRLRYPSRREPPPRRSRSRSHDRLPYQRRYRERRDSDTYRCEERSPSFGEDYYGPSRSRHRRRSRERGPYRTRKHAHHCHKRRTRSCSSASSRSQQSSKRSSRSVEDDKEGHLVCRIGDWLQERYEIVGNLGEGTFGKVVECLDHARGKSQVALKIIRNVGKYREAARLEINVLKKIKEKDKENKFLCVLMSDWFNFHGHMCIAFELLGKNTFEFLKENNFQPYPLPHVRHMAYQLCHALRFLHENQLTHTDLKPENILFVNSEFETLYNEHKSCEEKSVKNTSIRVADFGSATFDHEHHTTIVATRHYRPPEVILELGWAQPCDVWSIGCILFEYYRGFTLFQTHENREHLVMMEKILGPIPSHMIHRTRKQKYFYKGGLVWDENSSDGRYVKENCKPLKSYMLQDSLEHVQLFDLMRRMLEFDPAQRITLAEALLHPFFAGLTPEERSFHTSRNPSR

T1 sequence (P49760 whole entry): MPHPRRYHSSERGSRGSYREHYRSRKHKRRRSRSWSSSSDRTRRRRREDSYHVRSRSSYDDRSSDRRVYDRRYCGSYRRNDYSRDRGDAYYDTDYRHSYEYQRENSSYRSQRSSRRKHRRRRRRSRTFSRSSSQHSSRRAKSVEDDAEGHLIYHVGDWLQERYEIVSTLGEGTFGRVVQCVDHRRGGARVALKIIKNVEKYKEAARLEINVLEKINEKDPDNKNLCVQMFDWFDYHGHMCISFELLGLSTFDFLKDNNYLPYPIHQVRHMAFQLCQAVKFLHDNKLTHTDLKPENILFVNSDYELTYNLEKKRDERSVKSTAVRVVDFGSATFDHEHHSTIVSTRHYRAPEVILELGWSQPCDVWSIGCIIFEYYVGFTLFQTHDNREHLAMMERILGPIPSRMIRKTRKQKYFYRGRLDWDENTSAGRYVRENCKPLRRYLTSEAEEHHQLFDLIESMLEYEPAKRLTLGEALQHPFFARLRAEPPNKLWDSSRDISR

For `CN1CCC2(CC1)CN(c1cc(C(=O)Nc3cc4cc(-c5cnn(C)c5)ccc4cn3)ccn1)C2` [Compound 71], the EC50 (CLK2) was 1.1 nM, the EC50 (BT-549) was 215 nM and the EC50 (CAMA1) was 307 nM. The EC50 (DU4475) was 140 nM, the EC50 (HCC1599) was 177 nM and the EC50 (MCF7) was 860 nM. The EC50 (MDA-MB-231-Luc) was 292 nM, the EC50 (T47D) was 493 nM and the EC50 (ZR-75-1) was 365 nM. It also gave an EC50 (all 50 cell lines) of 232 nM, an EC50 ([1]; HCT-116, HCT116 cell line, read-out: Colorectal cancer, EC50 (μM) HCT116) of 0.105 µM and an EC50 ([1]; HT-29, HT29 cell line, read-out: Colorectal cancer, EC50 (μM) HT29) of 0.247 µM. The EC50 ([1]; SW-620, SW620 cell line, read-out: Colorectal cancer, EC50 (μM) SW620) was 0.068 µM, the EC50 ([1]; DLD-1 cell line, read-out: Colorectal cancer, EC50 (μM) DLD-1) was 0.137 µM and the EC50 ([1]; SW48 cell line, read-out: Colorectal cancer, EC50 (μM) SW48) was 0.052 µM. The EC50 ([1]; SW480 cell line, read-out: Colorectal cancer, EC50 (μM) SW480) was 0.145 µM, the EC50 ([2]; DND41, DND-41 cell line, read-out: Haematopoietic & Lymphoid tumors, EC50 (μM) DND-41) was 0.191 µM and the EC50 ([2]; MV4-11, MV-4-11 cell line, read-out: Haematopoietic & Lymphoid tumors, EC50 (μM) MV-4-11) was 0.056 µM. It also gave an EC50 ([2]; Rec1, REC-1 cell line, read-out: Haematopoietic & Lymphoid tumors, EC50 (μM) REC-1) of 0.061 µM, an EC50 ([2]; SU-DHL-4, SUDHL4 cell line, read-out: Haematopoietic & Lymphoid tumors, EC50 (μM) SUDHL4) of 0.208 µM and an EC50 ([2]; HL-60 cell line, read-out: Haematopoietic & Lymphoid tumors, EC50 (μM) HL-60) of 0.432 µM. The EC50 ([2]; JM1 cell line, read-out: Haematopoietic & Lymphoid tumors, EC50 (μM) JM1) was 0.054 µM, the EC50 ([2]; JURKAT, Clone E6-1 cell line, read-out: Haematopoietic & Lymphoid tumors, EC50 (μM) JURKAT, Clone E6-1) was 0.431 µM and the EC50 ([2]; JeKo-1 cell line, read-out: Haematopoietic & Lymphoid tumors, EC50 (μM) JeKo-1) was 0.062 µM. For the same molecule, the EC50 ([2]; KASUMI-1 cell line, read-out: Haematopoietic & Lymphoid tumors, EC50 (μM) KASUMI-1) was 0.129 µM, the EC50 ([2]; Loucy cell line, read-out: Haematopoietic & Lymphoid tumors, EC50 (μM) Loucy) was 0.146 µM and the EC50 ([2]; MOLT-4 cell line, read-out: Haematopoietic & Lymphoid tumors, EC50 (μM) MOLT-4) was 0.2 µM. The EC50 ([2]; TF-1 cell line, read-out: Haematopoietic & Lymphoid tumors, EC50 (μM) TF-1) was 0.368 µM, the EC50 ([2]; TOLEDO cell line, read-out: Haematopoietic & Lymphoid tumors, EC50 (μM) TOLEDO) was 0.073 µM and the EC50 ([3]; SNU-398, SNU398 cell line, read-out: Liver cancer, EC50 SNU398) was 48 nM. The EC50 ([3]; HEPG2 cell line, read-out: Liver cancer, EC50 HEPG2) was 165 nM, the EC50 ([3]; PLC/PRF/5 cell line, read-out: Liver cancer, EC50 PLC/PRF/5) was 459 nM and the EC50 ([4]; A-427, A427 cell line, read-out: Lung cancer, EC50 (μM) A427) was 0.198 µM. For the same molecule, the EC50 ([4]; HCC78, HCC-78 cell line, read-out: Lung cancer, EC50 (μM) HCC-78) was 0.304 µM, the EC50 ([4]; NCI-H460 cell line, read-out: Lung cancer, EC50 (μM) NCI-H460) was 0.248 µM and the EC50 ([4]; NCI-H522 cell line, read-out: Lung cancer, EC50 (μM) NCI-H522) was 0.095 µM. For the same molecule, the EC50 ([5]; PA-1, PA1 cell line, read-out: Ovarian cancer, EC50 (μM) PA1) was 0.209 µM, the EC50 ([5]; TOV112D, TOV-112D cell line, read-out: Ovarian cancer, EC50 (μM) TOV-112D) was 0.117 µM and the EC50 ([5]; OV-90 cell line, read-out: Ovarian cancer, EC50 (μM) OV-90) was 0.334 µM. For the same molecule, the EC50 ([5]; OVCAR-3 cell line, read-out: Ovarian cancer, EC50 (μM) OVCAR-3) was 0.092 µM, the EC50 ([6]; BXPC-3, BxPC3 cell line, read-out: Pancreatic cancer, EC50 BxPC3) was 383 nM and the EC50 ([6]; CAPAN-1, Capan1 cell line, read-out: Pancreatic cancer, EC50 Capan1) was 225 nM. For the same molecule, the EC50 ([6]; Capan-2, Capan2 cell line, read-out: Pancreatic cancer, EC50 Capan2) was 344 nM, the EC50 ([6]; MIA PaCa-2 cell line, read-out: Pancreatic cancer, EC50 MIA PaCa-2) was 90 nM and the EC50 ([6]; PANC 05.04 cell line, read-out: Pancreatic cancer, EC50 PANC 05.04) was 289 nM. For the same molecule, the EC50 ([6]; PANC-1 cell line, read-out: Pancreatic cancer, EC50 PANC-1) was 352 nM, the EC50 ([6]; UPAFII cell line, read-out: Pancreatic cancer, EC50 UPAFII) was 140 nM and the EC50 ([7]; DU-145, read-out: Prostate cancer EC50 Du-145) was 252 nM. It also gave an EC50 ([7]; PC-3, PC3 cell line, inhibition of cancer cell proliferation, read-out: Prostate cancer EC50 PC3) of 205 nM, an EC50 ([7]; 22Rv1 cell line, inhibition of cancer cell proliferation, read-out: Prostate cancer EC50 22Rv1) of 232 nM and an EC50 ([7]; LNCap clone FGC cell line, inhibition of cancer cell proliferation, read-out: Prostate cancer EC50 LNCap clone FGC) of 333 nM. For the same molecule, the EC50 ([7]; VCaP (Sigma) cell line, inhibition of cancer cell proliferation, read-out: Prostate cancer EC50 VCaP (Sigma)) was 466 nM and the EC50 (CLK3) was 16.2 nM.

From patent US20220062240A1, “METHODS OF TREATING CANCER USING A CLK INHIBITOR” (BioSplice Therapeutics, Inc., priority 2018, published 2022)
